The structures appear in SMILES notation. pEC50: −log10 of the molar value. A value given as a limit tells only on which side of the number the result lay.

What is called pEC50 is the negative decadic logarithm of the EC50, by convention in mol/L.

In experiment [1] the test system is W2 strain. Nature of the experiment: parasite proliferation assay in infected red blood cells (SYBR Green I), W2 strain. The format is cell-based. The note with it: Erythrocyte. The text has this:
Compounds of the invention can be assayed to measure their capacity to inhibit proliferation of parasitemia in infected red blood cells. The proliferation is quantified by the addition of SYBR Green I (INVITROGEN)® dye which has a high affinity for double stranded DNA.

For experiment [2], the system named is 3D7 P. falciparum strain. Nature of the experiment: parasite proliferation assay in infected red blood cells (SYBR Green I). The format is cell-based, Plasmodium falciparum. The conditions noted are these: Plasmodium falciparum, 3D7, Erythrocyte, 3D7 strain; read-out: EC50 3D7 strain. In short, it runs like this: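 P. falciparum 3D7 grown in O+ human erythrocytes to 3–8% parasitemia and exposed to compounds. Proliferation read as the increase in parasite DNA. Detection used SYBR Green I in saponin/triton-X/EDTA lysis buffer, with overnight lysis at room temperature.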

With `NCC(=O)N1CCn2c(nc(-c3ccccc3)c2Nc2ccc3c(c2)OCO3)C1` [Example 1, 2-amino-1-(3-(benzo[d][1,3]dioxol-5-ylamino)-2-phenyl-5,6-dihydroimidazo[1,2-a]pyrazin-7(8H)-yl)ethanone], the results for the pEC50 in experiment [1] and in experiment [2] were 6.33 and 6.34, respectively.
As for `Cc1ccc(Nc2c(-c3ccc(F)cc3)nc3n2CCN(C(=O)C[C@@H](N)Cc2cc(F)c(F)cc2F)C3)cc1` [Compound 172], the negative logarithm of the EC50 (pEC50) in experiment [1] is 7.06; in experiment [2] it was 7.00.
The corresponding values for `Cc1ccc(Nc2c(-c3ccc(F)cc3)nc3n2CCN(C(=O)C2(O)CCCC2)C3)cc1` [Compound 116] are 5.82 and 5.79.
On to `CCCCC(=O)Nc1ccc(C[C@H](NC(=O)OC(C)(C)C)C(=O)N2CCn3c(nc(-c4cccc(F)c4)c3Nc3ccc(F)cc3)C2)cc1` [Compound 254], for which the negative-log EC50 (pEC50) in experiment [1] was 6.14; in experiment [2] it was 5.46.
In the case of `N[C@@H](Cc1ccc(F)c(F)c1)C(=O)N1CCn2c(nc(-c3ccc(F)cc3)c2Nc2ccc(Cl)c(F)c2)C1` [Compound 319], the negative logarithm of the EC50 (pEC50) was 7.57 in experiment [1] and 7.40 in experiment [2].
With `COc1ccc(CN2Cc3nc(-c4ccc(F)cc4)c(Nc4ccc(Cl)c(C)c4)n3C(C)(C)C2=O)cc1` [Compound 614], the negative logarithm of the EC50 (pEC50) is 5.34 in experiment [1] (Plasmodium falciparum) and 5.30 in experiment [2].
Take `Cc1ccc(Nc2c(-c3ccc(F)cc3)nc3n2CCN(Cc2ccc(N4CCOCC4)cc2)C3)cc1` [Compound 180]: the figures for the pEC50 in experiment [1] and in experiment [2] were 6.22 and 6.14, respectively.
The corresponding values for `Cc1ccc(Nc2c(-c3ccc(F)cc3)nc3n2CCN(C(=O)[C@@H](N)CCS(C)(=O)=O)C3)cc1` [Compound 286] are 5.82 and 5.86.
As to `Cc1ccc(Nc2c(-c3ccc(F)cc3)nc3n2CCN(C(=O)[C@H](N)CO)C3)cc1` [Compound 284], the negative logarithm of the EC50 (pEC50) was 7.43 in experiment [1] and 7.30 in experiment [2].
The corresponding values for `Cc1ccc(Nc2c(-c3ccc(F)cc3)nc3n2CCN(C(=O)CNc2cccc(Cl)c2)C3)cc1` [Compound 361] are 5.94 and 5.63.
In the same order, the values of `CN(c1ccc(Cl)c(F)c1)c1c(-c2ccc(F)cc2)nc2n1CCN(C(=O)C(C)(C)N)C2` [Compound 294] are 6.95 and 6.96.
The corresponding values for `COC(=O)c1ccc(Nc2c(-c3ccccc3)nc3n2CCN(C(=O)C(C)(C)N)C3)cc1` [Compound 9] are 5.40 and 4.86.
With `CCC(C)CNc1c(-c2ccc(F)cc2)nc2n1CCN(C(=O)CN)C2(C)C` (stereo not shown) [Compound 674], the pEC50 in experiment [1] (Plasmodium falciparum) and in experiment [2] was 5.20 throughout.
`Cc1cc(Nc2c(-c3cccc(F)c3)nc3n2C(C)(C)CN(C(=O)CN)C3)ccc1Cl` [Compound 626]: the pEC50 in experiment [1] (Plasmodium falciparum) is 7.77; in experiment [2], 7.70.
As to `CC1(C)c2nc(-c3ccc(F)cc3)c(Sc3ccc(F)c(F)c3)n2CCN1C(=O)CN` [Compound 718], the pEC50 in experiment [1] (Plasmodium falciparum) is 8.22; in experiment [2], 8.10.
In the same order, the values of `Cc1cc(Nc2c(-c3ccc(F)cc3)nc3n2C(C)(C)CN(C)C3)ccc1Cl` [Compound 610] are 5.31 and 5.20.
For `COCCNCC(=O)N1CCn2c(nc(-c3ccc(F)cc3)c2Nc2ccc(C)cc2)C1` [Compound 309], the negative logarithm of the EC50 (pEC50) in experiment [1] was 7.17; in experiment [2], 7.10.
`Cc1ccc(Nc2c(-c3ccc(F)cc3)nc3n2CCN(C(=O)C(O)c2ccc(C(F)(F)F)cc2)C3)cc1` (stereo not shown) [Compound 127]: the pEC50 is 7.29 in experiment [1] and 7.22 in experiment [2].
In the same order, the values of `Cc1ccc(Nc2c(-c3ccc(F)cc3)nc3n2CCN(C(=O)[C@H](O)c2ccccc2)C3)cc1` [Compound 137] are 7.92 and 8.00.
Regarding `COCCN[C@@H](Cc1ccccc1)C(=O)N1CCn2c(nc(-c3ccc(F)cc3)c2Nc2ccc(Cl)c(F)c2)C1` [Compound 282], the results for the negative logarithm of the EC50 (pEC50) in experiment [1] and in experiment [2] were 6.93 and 6.92, respectively.
Consider `Cc1cc(Nc2c(-c3ccc(F)cc3)nc3n2CC(=O)N(CCN(C)C)C3(C)C)ccc1Cl` [Compound 684], for which the negative-log EC50 (pEC50) in experiment [1] (Plasmodium falciparum) was 7.77; in experiment [2], 7.52.
As to `CC(C)(C)OC(=O)N[C@@H](Cc1ccc(N)cc1)C(=O)N1CCn2c(nc(-c3cccc(F)c3)c2Nc2ccc(Cl)c(F)c2)C1` [Compound 242], the pEC50 in experiment [1] was 6.54; in experiment [2], 5.68.
On to `Cc1ccc(Nc2c(-c3ccc(F)cc3)nc3n2CCN(C(=O)[C@H]2CCN2)C3)cc1` [Compound 89], for which the negative logarithm of the EC50 (pEC50) was 7.14 in experiment [1] and 7.30 in experiment [2].
In the same order, the values of `CCC(=O)Nc1ccc(C[C@H](N)C(=O)N2CCn3c(nc(-c4cccc(F)c4)c3Nc3ccc(F)cc3)C2)cc1` [Compound 261] are 5.38 and 5.15.
For the compound `N[C@@H](Cc1ccccc1)C(=O)N1CCn2c(nc(-c3ccc(F)cc3)c2Nc2ccc(F)cc2)C1` [Compound 19], the pEC50 in experiment [1] was 7.23; in experiment [2], 7.15.
`CC(C)(N)C(=O)N1CCn2c(nc(-c3ccc(F)cc3)c2Cc2ccc(F)cc2)C1` [Compound 697]: the pEC50 in experiment [1] (Plasmodium falciparum) is 6.59; in experiment [2], 6.44.
Regarding `CCCNC(=O)C[C@H](N)C(=O)N1CCn2c(nc(-c3cccc(F)c3)c2Nc2ccc(Cl)c(F)c2)C1` [Compound 255], the pEC50 is 6.19 in experiment [1] and 6.21 in experiment [2].
The corresponding values for `Cc1ccc(Nc2c(-c3ccc(F)cc3)nc3n2CCN(C(=O)[C@H]2CCC[C@H]2N)C3)cc1` [Compound 193] are 7.12 and 7.05.
On to `CC1(C)c2nc(-c3ccc(F)cc3)cn2CCN1C(=O)C(N)CCc1cccc(F)c1` (stereo not shown) [Compound 701], for which the values for the negative-log EC50 (pEC50) in experiment [1] (Plasmodium falciparum) and in experiment [2] were 5.13 and 5.08, respectively.
With `N[C@@H](Cc1cscn1)C(=O)N1CCn2c(nc(-c3ccc(F)cc3)c2Nc2ccc(Cl)c(F)c2)C1` [Compound 315], the negative logarithm of the EC50 (pEC50) in experiment [1] was 8.10; in experiment [2], 7.70.
As to `CC1(C)c2nc(-c3ccc(F)cc3)c(Nc3ccc(C(F)(F)F)c(Cl)c3)n2CCN1C(=O)CN` [Compound 658], the negative logarithm of the EC50 (pEC50) in experiment [1] (Plasmodium falciparum) is 8.22; in experiment [2], 8.30.
With `NCC(=O)N1CCn2c(nc(-c3ccc(Cl)cc3)c2Nc2ccc(F)cc2)C1` [Compound 55], the pEC50 in experiment [1] was 6.36; in experiment [2], 6.18.
For the compound `Cc1ccc(Nc2c(-c3ccc(F)cc3)nc3n2CCN(C(=O)C(C)(C)N)C3)cc1Cl` [Compound 632], the negative logarithm of the EC50 (pEC50) was 7.80 in experiment [1] (Plasmodium falciparum) and 7.82 in experiment [2].
As to `NC(C(=O)N1CCn2c(nc(-c3ccc(F)cc3)c2Nc2ccc(Cl)c(F)c2)C1)c1ccc(Cl)c(Cl)c1` (stereo not shown) [Compound 365], the negative-log EC50 (pEC50) in experiment [1] is 6.59; in experiment [2], 6.21.
The corresponding values for `CN[C@@H](Cc1ccccc1)C(=O)N1CCn2c(nc(-c3ccc(F)cc3)c2Nc2ccc(C)cc2)C1` [Compound 149] are 7.96 and 7.70.
`CCCCCNC(=O)C[C@H](NC(=O)OC(C)(C)C)C(=O)N1CCn2c(nc(-c3cccc(F)c3)c2Nc2ccc(F)cc2)C1` [Compound 250]: the pEC50 in experiment [1] is 5.40; in experiment [2] it was 5.41.
The corresponding values for `Cc1ccc(Nc2c(-c3ccc(F)cc3)nc3n2CCN(C(=O)[C@H](CCCCNC(=O)OC(C)(C)C)NC(=O)OCc2ccccc2)C3)cc1` [Compound 152] are 6.06 and 5.41.
As for `CCCN(CCC)CC(=O)N1CCn2c(nc(-c3ccc(F)cc3)c2Nc2ccc(C)cc2)C1` [Compound 147], the pEC50 in experiment [1] is 5.82; in experiment [2], 5.61.
For `Cc1ccc(Nc2c(-c3ccc(F)cc3)nc3n2CCN(C(=O)[C@@H](N)CCCCNC(=O)CCOCCOCCOCCOCCNC(=O)CCCCC2SCC4NC(=O)NC42)C3)cc1` (stereo partly shown) [Compound 159], the pEC50 in experiment [1] was 5.54; in experiment [2] it was 5.24.
In the same order, the values of `O=C(Cc1ccc(Cl)c(F)c1)N1CCn2c(nc(-c3ccc(F)cc3)c2Nc2ccc(Cl)c(F)c2)C1` [Compound 363] are 5.95 and 5.76.
For `Cc1ccc(-c2nc3n(c2Nc2ccc(F)cc2)CCN(C(=O)CN)C3)cc1` [Compound 52], the values for the pEC50 in experiment [1] and in experiment [2] were 5.47 and 5.50, respectively.
The corresponding values for `CCCCC(=O)Nc1ccc(C[C@H](N)C(=O)N2CCn3c(nc(-c4cccc(F)c4)c3Nc3ccc(Cl)c(F)c3)C2)cc1` [Compound 258] are 5.45 and 5.31.
Turning to `NC(C(=O)N1CCn2c(nc(-c3ccc(F)cc3)c2Nc2ccc(Cl)c(F)c2)C1)c1ccc(Cl)cc1` (stereo not shown) [Compound 369], the pEC50 in experiment [1] was 7.08; in experiment [2] it was 6.96.
Take `Cc1ccc(Nc2c(-c3ccc(F)cc3)nc3n2CCN(C(=O)C(O)C(C)C)C3)cc1` (stereo not shown) [Compound 104]: the pEC50 in experiment [1] was 8.15; in experiment [2], 8.00.
`Cc1ccc(NCC(=O)N2CCn3c(nc(-c4ccc(F)cc4)c3Nc3ccc(C)cc3)C2)cc1` [Compound 362]: the results for the pEC50 in experiment [1] and in experiment [2] were 6.69 and 6.09, respectively.
In the same order, the values of `Cc1ccc(Nc2c(-c3ccc(F)cc3)nc3n2CCN(C(=O)CNC2CC2)C3)cc1` [Compound 153] are 7.49 and 7.22.
The corresponding values for `Cc1ccc(N2Cc3nc(-c4ccc(F)cc4)c(N)n3CC2=O)cc1` [Compound 299] are 5.03 and under 5.06.
In the case of `O=C(C1COCCN1)N1CCn2c(nc(-c3ccc(F)cc3)c2Nc2ccc(Cl)c(F)c2)C1` (stereo not shown) [Compound 323], the pEC50 is 5.88 in experiment [1] and 5.76 in experiment [2].
The corresponding values for `Cc1ccc(Nc2c(-c3ccc(F)cc3)nc3n2CCN(C(=O)[C@@H](O)C(C)C)C3)cc1` [Compound 204] are 8.00 and 8.00.
`Cc1ccc(Nc2c(-c3ccc(F)cc3)nc3n2C(C)(C)CN(C)C3)cc1C#N` [Compound 612]: the negative-log EC50 (pEC50) is 5.22 in experiment [1] (Plasmodium falciparum) and 5.16 in experiment [2].

The values are drawn from patent US9469645B2, “Compounds and compositions for the treatment of parasitic diseases” (Novartis AG, priority 2009, dated 2016).
